The results in this text go back to patent US20190175534A1, “PHARMACEUTICAL COMPOSITIONS COMPRISING DGLA AND USE OF SAME” (DS Biopharma Limited, priority 2016, published 2019).

For series [1], the system named is spontaneous hypertensive rats. Description: Arterial pressure in spontaneous hypertensive rats after seven days of gavage, with intravenous phenylephrine challenge. Type of series: in vivo, rat.
Experimental: An in vivo investigation of anti-hypertension efficacy following co-administration of DGLA and aspirin in spontaneous hypertensive rats was conducted. This experiment investigated the efficacy of DGLA when co-administered chronically with aspirin to reduce the hypertensive response induced acutely by phenylephrine in spontaneous hypertensive rats. Spontaneously hypertensive adult male rats (250-300 g), bred by Charles River Laboratories, were used for this assay. […] The animals were pair-housed by group (low dose+aspirin, high dose+aspirin or aspirin alone) for the duration of the oral gavage prior to surgery.
The test article was formulated using olive oil as the vehicle. This stock solution was then administered by oral gavage once per day for seven consecutive days. A low and a high dose (50 mg/kg and 500 mg/kg) were tested.
A 5 mg/ml stock solution of aspirin was prepared by dissolving the appropriate amount of aspirin in 100% DMSO which was then diluted in water. The concentration of DMSO was less than 1%. The appropriate volume was administered by oral gavage to each animal once per day for seven consecutive days. The stock solution was stored at room temperature and was considered stable for the duration of the gavage.
The appropriate volume was administered to each animal by an intravenous injection at the end of the experiment on the surgery day. The stock solution was stored at 4° C. and was considered stable for the duration of the experiment.
Male spontaneous hypertensive rats weighing approximately 300 g arrived at the facility at least two days before beginning the oral gavage. Animals were assigned to one of three groups (low dose+aspirin, high dose+aspirin, and aspirin), and were pair-housed during the acclimation period. […]
Rats were anesthetized with a 2.5-3.0% isoflurane-O2 mixture in an induction box. […] Blood pressure, systemic arterial pressure (SAP), and heart rate were monitored continuously for a total of half an hour. Hypertension was detected as an increase in diastolic, systolic or mean blood pressure. […]
On the set-up of series [2]: species or system human. To be noted: in vivo, po. The protocol:
A single-center, double-blind, randomized, placebo-controlled, two part Phase one study was performed in healthy male and female subjects aged 18 to 45 years inclusive. The primary objective of this study was to assess the safety and plasma pharmacokinetics (PK) of orally administered single doses and orally administered multiple doses of DS107G capsules (once daily for 28 days) in healthy subjects.
Subjects were randomly assigned in a 3:1 ratio of DG107G to placebo by block randomization. Single dose part one of the study comprised three cohorts of eight subjects each, with the addition of Cohort four based on evaluation of the safety data of Cohort three by the Safety Monitoring Committee (SMC). A single oral dose of DS107G or matching placebo was administered to fasted subjects in Cohorts one to three (500, 1000, and 2000 mg, respectively) in parallel; subjects in Cohort four were administered a dose of 4000 mg following completion of Cohort three. Subjects in Cohort two received 1000 mg or matching placebo in the fed state at ≥14 days after the first dose.
Safety assessments were monitored throughout the study.
In Part one of the study, subjects in Cohorts one to three were administered a single dose of study drug (either 500-, 1000-, or 2000-mg as 500-mg DS107G capsules or matching placebo capsules) in parallel on study Day 1 after at least an 8-hour fast, according to Table 20. Cohort 4 was initiated following the review of safety data from Cohort 3 by the SMC.

SMILES strings stand for the structures.

Take `CC(=O)Oc1ccccc1C(=O)O` [Aspirin, aspirin]: the “Mean arterial pressure, Average SAP” value in series [1] (Aspirin gavage 7 days, phenylephrine 20 μg/kg iv) stood at 174.3.

For `CCCCC[C@H](O)/C=C/C=C\C/C=C\CCCCCCC(=O)O` [Batch 15-HETrE, 15-Hydroxyeicosatrienoic acid], the “Free 15-HETrE plasma concentration” value in series [2] is reported as < 100 ng/mL.

As to `COc1ccccc1OCCNCC(O)COc1cccc2[nH]c3ccccc3c12` (stereo not drawn) [Carvedilol, carvedilol], the “Effect on mean systemic arterial pressure when added after phenylephrine” value in series [1] (0.1 mg/kg i.v., aspirin-fed rats) is “significant decrease”.
